The numbers were not newly measured in patent US20200215149A1, “N-Phenylacetyl-L-prolylglycine ethyl ester compositions and methods for using the same” (priority 2019, published 2020), which cites them from elsewhere.

Like-named read-outs stand apart in the source and are kept apart here. Where a SMILES comes first, the peptide text is derived from it. The star is where a group is joined. PhAc = O=C(Cc1ccccc1)*

For data set [1] the following is noted: Ostrovskaya, et al. (2008); Hayakawa, et al. (2007).
For data set [2] the following is noted: ratio versus piracetam; Neznamov and Teleshova (2009).

Turning to `C=C(C)[C@@H]1CCC(C)=C[C@H]1c1c(O)cc(CCCCC)cc1O` [CBD, cannabidiol], in data set [1], the tolerance or addiction entry is given as “neither noopept nor CBD has been shown to cause the user to become tolerant or addicted”. The side effects result (humans who consume effective doses of CBD, Bergamaschi, et al. (2011)) is listed as “generally does not cause significant side effects”.
In the case of `CCOC(=O)CNC(=O)[C@@H]1CCCN1C(=O)Cc1ccccc1` [noopept, N-Phenylacetyl-L-prolylglycine ethyl ester] (PhAc-Pro-Gly-OEt), the tolerance or addiction result in data set [1] is “neither noopept nor CBD has been shown to cause the user to become tolerant or addicted”. Moreover, the “effective dose, times smaller in mass than the effective dose of piracetam” value in data set [2] is reported as “over 50 times”. Further, the side effects result (healthy human subjects, compared with piracetam, Neznamov and Teleshova (2009)) was “fewer side effects”.
